According to patent publication US5053404A, “Novel steroid derivatives, pharmaceutical compositions containing them and process for preparing same” (Richter Gedeon Vegyeszeti Gyar R. T., priority 1989, dated 1991):

Experiments:
[1] = Comparative acute toxicity (LD50), mice; conditions: mouse, in vivo, 2-week observation
Description: (§1) 1) Comparative study on the acute toxicity
(§2) Animal groups consisting of 10 CFLP mice or RG Hann Wistar rats each of both sexes were used. The doses causing the death of 50% of the animals (LD50 values) within a 2-week observation period following subcutaneous (s.c.) or oral (p.o.) administration were determined.

[2] = Comparative acute toxicity (LD50), rats; conditions: rat, in vivo, 2-week observation
Description: as §1, §2

[3] = test system: croton oil-induced contact dermatitis; experiment: Croton oil-induced contact dermatitis model, ear weight; assay type: in vivo, rat; conditions: for Ear weight / Inhibition (of ear weight increase): topical on ear, 6 hours; for Inhibition (of ear weight increase): vs croton oil control; for Relative activity: relative to budesonide = 100, on 10 μg/ml line
Description: (§3) 2) The croton oil-induced contact dermatitis model
(§4) Infantile female rats weighing 45 to 55 g were used. Animals had previously been selected for this test, the ear weight of which increased at least by 100% under effect of a treatment with 2% croton oil.
(§5) The test compounds were dissolved in a 2% croton oil mixture in various concentrations and then applied onto the ears of the animals. The control group was treated only with the croton oil inducing inflammation. Six hours after treatment the ears of the animals were cut off and weighed. For evaluation, the diminution of the ear weight increase was expressed as "percentage of inhibition", in comparison to the control treated with croton oil only. In the 48th hour the thymi of the animals were excised and the harmful systemic side effect of the test compounds was evaluated by comparing their thymus weight to that of the control animals.

thymus [4] = experiment: Thymus involution (systemic side effect) in croton oil-induced contact dermatitis model; assay type: in vivo, rat; conditions: 48th hour
Excerpt: (§6) Two principal (essential) demands are set up against topically used steroid antiinflammatory drugs: a) they should be as active as possible in various animal experiments used for investigating the antiinflammatory action; and b) they should induce the lowest harmful systemic side effect. This latter effect can be well characterized by the thymus weight-decreasing action (involution). The possibly lowest toxicity (i.e. the possibly highest LD50 value) is an essential demand for any active agent (drug) used in therapy.
as §3, §4, §5

local granuloma sac = experiment: Local granuloma sac model, exudate (antiinflammatory effect); assay type: in vivo, rat; conditions: for Exudate / Inhibition (decrease in volume of exudate): 10th day; for Inhibition (decrease in volume of exudate): vs control; for Relative activity: relative to budesonide = 100, on 2.00 μg/sac line
Description: (§7) 3) The local granuloma sac model
This method was used to investigate the antiexudative action of the topically administered glucocorticoids.
Groups consisting of 10 female RG Hann Wistar rats each weighing 130 to 150 g were used. […] After 5 days the content of the sac was removed by suction and once 3 doses each of the glucocorticoids to be tested or budesonide respectively, in a volume of 0.5 ml suspension in Tween 80 were administered by an injection syringe. On the 10th day following the start of the experiment the animals were sacrificed and the exudate liquid of the sac (expressed as ml) was measured. The percentage of the antiinflammatory effect was calculated based on the decrease in the volume of exudate related to that of the control.

thymus [5] = experiment: Thymus involution (systemic side effect) in local granuloma sac model; assay type: in vivo, rat; conditions: 10th day
Excerpt: as §6, §7
Groups consisting of 10 female RG Hann Wistar rats each weighing 130 to 150 g were used. After shaving the back of the animals 25 ml of air were injected beneath the back skin and 1 ml of 2% croton oil inducing inflammation was introduced to the air sac. After 5 days the content of the sac was removed by suction and once 3 doses each of the glucocorticoids to be tested or budesonide respectively, in a volume of 0.5 ml suspension in Tween 80 were administered by an injection syringe. On the 10th day following the start of the experiment the animals were sacrificed and the exudate liquid of the sac (expressed as ml) was measured. The percentage of the antiinflammatory effect was calculated based on the decrease in the volume of exudate related to that of the control.
Then, the thymi of the animals were excised and the harmful systemic side effect of the test compounds was calculated as a percentage based on the comparison of the thymus weight of animals treated with the test compounds to that of the untreated control group.

experimental asthma = experiment: Experimental asthma model (ovalbumin); assay type: in vivo, guinea-pig; conditions: 50 mg/kg i.p. 20 hours before i.v. ovalbumin provocation; for Dyspnoea (percentage occurrence): control 33; for Survival: control 66
Excerpt: 4) The experimental asthma model
This test was used to investigate the antiasthmatic effect of the test compounds.
It is known that by ovalbumin (OA) treatment an experimental asthma can be induced on guinea-pigs which is accompanied by dyspnoea and causes the death of the animals in severe cases. This test is useful to detect an eventual antiasthmatic effect of the test compounds.
Guinea-pigs of both sexes weighing 300 to 400 g each were used. The experimental animals were sensitized by i.p. ovalbumin (10/ μg of OA+100 mg of aluminum hydroxide/animal) and after 30 days they were provoked by the intravenous (i.v.) administration of 100 mg/kg of OA. Both the test compounds and budesonide used as reference substance were given 50 mg/kg i.p. dose 20 hours before the provocation. The percentage occurrence of dyspnoea and the survival were observed.

| SMILES | LD50 at 336 h ([1]; po, female) | LD50 at 336 h ([1]; po, male) | LD50 at 336 h ([1]; sc, female) | LD50 at 336 h ([1]; sc, male) | LD50 at 336 h ([2]; po, female) | LD50 at 336 h ([2]; po, male) | LD50 at 336 h ([2]; sc, female) | LD50 at 336 h ([2]; sc, male) | Ear weight ([3]; 1 μg/ml in 2% croton oil) | Inhibition (of ear weight increase) ([3]; 1 μg/ml) | Ear weight ([3]; 10 μg/ml in 2% croton oil) | Inhibition (of ear weight increase) ([3]; 10 μg/ml) | Ear weight ([3]; 100 μg/ml in 2% croton oil) | Inhibition (of ear weight increase) ([3]; 100 μg/ml) | Relative activity [3] | Thymus involution (thymus [4]; 1 μg/ml topical on ear) | Thymus involution (thymus [4]; 10 μg/ml topical on ear) | Thymus involution (thymus [4]; 100 μg/ml topical on ear) | Exudate (local granuloma sac; 0.22 μg/sac) | Inhibition (decrease in volume of exudate) (local granuloma sac; 0.22 μg/sac) | other results |
| --- | --- | --- | --- | --- | --- | --- | --- | --- | --- | --- | --- | --- | --- | --- | --- | --- | --- | --- | --- | --- | --- |
| CCCC1O[C@@H]2C=C3[C@@H]4CCC5=CC(=O)C=C[C@]5(C)[C@H]4[C@@H](O)C[C@]3(C)[C@]2(C(=O)CO)O1 (stereo partly drawn) [Ex. No. 2, 11β,16α,17,21-tetrahydroxypregna-1,4,14-trien-3,20-dion-16,17-cyclic butyraldehyde acetal] | > 4000 mg/kg | > 4000 mg/kg | 823 mg/kg | 585 mg/kg | > 3000 mg/kg | > 4000 mg/kg | 843 mg/kg | 1210 mg/kg | 144.60 ± 2.8 mg | 19.56% | 131.10 ± 2.7 mg | 35.59% | 118.20 ± 2.2 mg | 50.90% | 78 | 0% | 0% | 9.8% | 7.47 ± 0.5 mL | 41.32% | Exudate (local granuloma sac; 2.00 μg/sac): 5.10 ± 0.4 mL; Inhibition (decrease in volume of exudate) (local granuloma sac; 2.00 μg/sac): 59.94%; Exudate (local granuloma sac; 18.00 μg/sac): 1.36 ± 0.2 mL; Inhibition (decrease in volume of exudate) (local granuloma sac; 18.00 μg/sac): 89.32%; Relative activity (local granuloma sac): 62; Thymus involution (thymus [5]; 0.22 μg/sac): 0%; Thymus involution (thymus [5]; 2.00 μg/sac): 0%; Thymus involution (thymus [5]; 18.00 μg/sac): 0%; Dyspnoea (percentage occurrence) (experimental asthma): 14%; Survival (experimental asthma): 43% |
| CC(C)C1O[C@@H]2C=C3[C@@H]4CCC5=CC(=O)C=C[C@]5(C)[C@H]4[C@@H](O)C[C@]3(C)[C@]2(C(=O)CO)O1 (stereo partly drawn) [Ex. No. 6, 11β,16α,17,21-tetrahydroxypregna-1,4,14-trien-3,20-dion-16,17-cyclic isobutyraldehyde acetal] | 2790 mg/kg | 2930 mg/kg | 634 mg/kg | 333 mg/kg | > 3000 mg/kg | > 4000 mg/kg | 164 mg/kg | 162 mg/kg | 144.40 ± 3.5 mg | 19.80% | 126.90 ± 2.7 mg | 40.57% | 115.10 ± 2.6 mg | 54.57% | 118 | 0% | 1.7% | 0% | 6.52 ± 0.6 mL | 48.79% | Exudate (local granuloma sac; 2.00 μg/sac): 5.08 ± 0.4 mL; Inhibition (decrease in volume of exudate) (local granuloma sac; 2.00 μg/sac): 60.10%; Exudate (local granuloma sac; 18.00 μg/sac): 1.69 ± 0.3 mL; Inhibition (decrease in volume of exudate) (local granuloma sac; 18.00 μg/sac): 86.73%; Relative activity (local granuloma sac): 71; Thymus involution (thymus [5]; 0.22 μg/sac): 4.98%; Thymus involution (thymus [5]; 2.00 μg/sac): 4.98%; Thymus involution (thymus [5]; 18.00 μg/sac): 6.22%; Dyspnoea (percentage occurrence) (experimental asthma): 0%; Survival (experimental asthma): 100% |
| CCCC1O[C@@H]2C[C@H]3[C@@H]4CCC5=CC(=O)C=C[C@]5(C)[C@H]4[C@@H](O)C[C@]3(C)[C@]2(C(=O)CO)O1 (stereo partly drawn) [Budesonide, (22RS)-11β,21-dihydroxy-16α,17-butylidenedioxypregna-1,4-dien-3,20-dione, reference compound] | 1360 mg/kg | 1080 mg/kg | 109 mg/kg | 131 mg/kg | 2110 mg/kg | 3400 mg/kg | 71.5 mg/kg | 59.4 mg/kg | 144.71 ± 2.0 mg | 19.43% | 127.78 ± 2.0 mg | 39.53% | 117.07 ± 2.7 mg | 52.24% | 100 | 9.2% | 3.9% | 26.1% | 6.38 ± 0.4 mL | 49.89% | Exudate (local granuloma sac; 2.00 μg/sac): 4.00 ± 0.3 mL; Inhibition (decrease in volume of exudate) (local granuloma sac; 2.00 μg/sac): 68.58%; Exudate (local granuloma sac; 18.00 μg/sac): 1.84 ± 0.5 mL; Inhibition (decrease in volume of exudate) (local granuloma sac; 18.00 μg/sac): 85.55%; Relative activity (local granuloma sac): 100; Thymus involution (thymus [5]; 0.22 μg/sac): 0%; Thymus involution (thymus [5]; 2.00 μg/sac): 0%; Thymus involution (thymus [5]; 18.00 μg/sac): 24.43%; Dyspnoea (percentage occurrence) (experimental asthma): 20%; Survival (experimental asthma): 60% |
